Measured values: ChEMBL document CHEMBL1148788 (J Med Chem, 2007)

What was measured:
[1] = target: T1, Neuronal acetylcholine receptor subunit alpha-7 (Homo sapiens, UniProt P36544); assay: Displacement of [3H]methyllycaconitine from human alpha-7 in tsA201 cells coexpressed with 5HT3A receptor; format: cell-based
[2] = target: T2, Neuronal acetylcholine receptor; alpha3/beta4 (Rattus norvegicus, UniProt P04757+P12392); assay: Antagonist activity at rat alpha3beta4 nAChR expressed in HEK293 cells by FMP assay; format: functional, cell-based, Homo sapiens; settings: for pIC50: hek293
T2 sequence (P04757 whole entry): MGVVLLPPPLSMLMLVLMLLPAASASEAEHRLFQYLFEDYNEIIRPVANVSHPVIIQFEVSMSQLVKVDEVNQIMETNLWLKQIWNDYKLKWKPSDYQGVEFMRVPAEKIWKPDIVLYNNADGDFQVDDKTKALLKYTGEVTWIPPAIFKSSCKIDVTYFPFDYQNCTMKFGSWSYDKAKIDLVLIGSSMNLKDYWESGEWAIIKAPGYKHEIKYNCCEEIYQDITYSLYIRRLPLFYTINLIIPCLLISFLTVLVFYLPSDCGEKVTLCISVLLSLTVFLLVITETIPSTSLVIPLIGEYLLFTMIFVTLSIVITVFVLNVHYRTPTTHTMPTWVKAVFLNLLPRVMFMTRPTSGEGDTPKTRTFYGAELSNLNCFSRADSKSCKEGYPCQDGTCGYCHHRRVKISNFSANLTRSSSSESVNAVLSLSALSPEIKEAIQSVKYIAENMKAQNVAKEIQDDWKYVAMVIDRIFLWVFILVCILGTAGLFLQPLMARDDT
T2 sequence (P12392 whole entry): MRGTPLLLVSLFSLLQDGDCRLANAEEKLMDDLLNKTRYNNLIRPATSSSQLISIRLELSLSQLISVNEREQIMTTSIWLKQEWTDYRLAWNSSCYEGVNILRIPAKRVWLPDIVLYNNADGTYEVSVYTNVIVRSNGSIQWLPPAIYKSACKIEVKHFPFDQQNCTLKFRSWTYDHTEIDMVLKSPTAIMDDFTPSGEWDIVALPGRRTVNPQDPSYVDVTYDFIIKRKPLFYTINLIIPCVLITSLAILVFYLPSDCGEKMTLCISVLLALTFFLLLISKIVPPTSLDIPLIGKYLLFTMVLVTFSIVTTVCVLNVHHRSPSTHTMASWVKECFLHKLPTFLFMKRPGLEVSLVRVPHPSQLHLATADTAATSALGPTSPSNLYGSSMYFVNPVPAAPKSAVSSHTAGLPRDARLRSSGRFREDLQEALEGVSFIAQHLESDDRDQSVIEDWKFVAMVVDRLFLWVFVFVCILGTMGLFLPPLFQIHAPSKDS

[3] = target: Neuronal acetylcholine receptor; alpha4/beta2 (Rattus norvegicus, UniProt P09483+P12390); assay: Displacement of [3H]epibatidine from rat recombinant alpha-4-beta-2 nAChR in HEK293 cell line; format: cell-based; settings: for pKi: hek293; for Ki: read-out: Ki
Chain of Neuronal acetylcholine receptor; alpha4/beta2 (P09483 whole entry): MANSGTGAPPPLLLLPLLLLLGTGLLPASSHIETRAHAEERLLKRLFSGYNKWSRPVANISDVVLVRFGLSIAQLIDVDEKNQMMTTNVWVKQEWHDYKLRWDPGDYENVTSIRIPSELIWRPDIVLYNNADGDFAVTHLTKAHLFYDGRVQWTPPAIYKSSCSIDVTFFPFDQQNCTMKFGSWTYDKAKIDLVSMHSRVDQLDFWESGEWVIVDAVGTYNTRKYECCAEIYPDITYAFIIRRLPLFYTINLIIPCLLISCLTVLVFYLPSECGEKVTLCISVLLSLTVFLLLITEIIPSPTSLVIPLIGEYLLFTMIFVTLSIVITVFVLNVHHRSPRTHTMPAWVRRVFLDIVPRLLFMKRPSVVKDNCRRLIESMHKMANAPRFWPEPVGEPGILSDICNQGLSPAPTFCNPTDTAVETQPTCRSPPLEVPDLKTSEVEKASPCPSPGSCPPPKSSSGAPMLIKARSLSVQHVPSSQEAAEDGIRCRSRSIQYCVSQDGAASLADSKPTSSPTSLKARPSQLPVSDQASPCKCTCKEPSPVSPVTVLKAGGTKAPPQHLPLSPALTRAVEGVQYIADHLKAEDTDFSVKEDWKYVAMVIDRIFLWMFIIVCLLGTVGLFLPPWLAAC
Chain of Neuronal acetylcholine receptor; alpha4/beta2 (P12390 whole entry): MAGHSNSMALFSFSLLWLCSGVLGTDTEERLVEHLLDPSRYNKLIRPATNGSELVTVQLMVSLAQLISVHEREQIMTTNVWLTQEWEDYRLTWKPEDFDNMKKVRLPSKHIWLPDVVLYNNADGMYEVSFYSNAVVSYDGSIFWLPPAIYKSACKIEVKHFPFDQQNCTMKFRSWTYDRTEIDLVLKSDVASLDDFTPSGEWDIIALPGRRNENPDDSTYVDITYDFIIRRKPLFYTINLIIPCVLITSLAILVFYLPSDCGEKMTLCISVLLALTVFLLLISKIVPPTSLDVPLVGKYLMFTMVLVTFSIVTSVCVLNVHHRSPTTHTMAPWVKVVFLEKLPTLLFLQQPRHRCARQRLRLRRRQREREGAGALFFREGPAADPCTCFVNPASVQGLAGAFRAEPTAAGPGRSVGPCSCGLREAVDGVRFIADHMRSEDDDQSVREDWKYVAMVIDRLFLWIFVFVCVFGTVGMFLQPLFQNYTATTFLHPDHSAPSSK

cells = format: functional, cell-based; settings: Homo sapiens, HEK293
[4] = target: T2, Neuronal acetylcholine receptor; alpha3/beta4; assay: Displacement of [3H]epibatidine from recombinant rat alpha-3-beta-4 nAChr in HEK293 cell line; format: cell-based; settings: for pKi: hek293
[5] = target: T3, 5-hydroxytryptamine receptor 3A (Homo sapiens, UniProt P46098); assay: Antagonist activity at human 5HT3A receptor expressed in HEK293 cells by FMP assay; format: functional, cell-based; settings: for IC50: read-out: IC50; for pIC50: hek293
T3 sequence (P46098 whole entry): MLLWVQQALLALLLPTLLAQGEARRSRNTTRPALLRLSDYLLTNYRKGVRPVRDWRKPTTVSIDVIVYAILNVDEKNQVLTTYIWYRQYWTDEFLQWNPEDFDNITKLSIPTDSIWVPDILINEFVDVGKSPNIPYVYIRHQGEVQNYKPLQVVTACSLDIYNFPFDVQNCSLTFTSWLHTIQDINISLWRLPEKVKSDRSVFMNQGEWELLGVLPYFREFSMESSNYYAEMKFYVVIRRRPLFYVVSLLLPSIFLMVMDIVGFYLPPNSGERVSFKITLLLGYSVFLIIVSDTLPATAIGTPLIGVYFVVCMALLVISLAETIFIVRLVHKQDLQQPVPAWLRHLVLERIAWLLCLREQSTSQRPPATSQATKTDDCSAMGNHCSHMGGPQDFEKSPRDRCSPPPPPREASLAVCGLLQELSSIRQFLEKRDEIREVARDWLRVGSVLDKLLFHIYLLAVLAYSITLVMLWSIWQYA

[6] = target: T1, Neuronal acetylcholine receptor subunit alpha-7; assay: Displacement of [3H]methyllycaconitine from alpha7 nAChR in tsA201 cells co-expressed with Ric3; format: cell-based
[7] = target: T3, 5-hydroxytryptamine receptor 3A; assay: Displacement of [3H]GR65630 from human 5HT3A receptor in HEK293 cells; format: cell-based; settings: for pKi: hek293
[8] = target: Neuronal acetylcholine receptor; alpha4/beta4 (Rattus norvegicus, UniProt P09483+P12392); assay: Displacement of [3H]epibatidine from recombinant rat alpha-4-beta-4 nAChr in HEK293 cell line; format: cell-based; settings: for pKi: hek293
Chain of Neuronal acetylcholine receptor; alpha4/beta4 (P09483 whole entry): as the sequence (P09483 whole entry) above
Chain of Neuronal acetylcholine receptor; alpha4/beta4 (P12392 whole entry): as the sequence (P12392 whole entry) above

[9] = target: T4, Glycine receptor subunit alpha-1 (Homo sapiens, UniProt P23415); assay: Antagonist activity at human glycine alpha-1 receptor in HEK293 cells by FMP assay; format: functional, cell-based; settings: for pIC50: hek293
T4 sequence (P23415 whole entry): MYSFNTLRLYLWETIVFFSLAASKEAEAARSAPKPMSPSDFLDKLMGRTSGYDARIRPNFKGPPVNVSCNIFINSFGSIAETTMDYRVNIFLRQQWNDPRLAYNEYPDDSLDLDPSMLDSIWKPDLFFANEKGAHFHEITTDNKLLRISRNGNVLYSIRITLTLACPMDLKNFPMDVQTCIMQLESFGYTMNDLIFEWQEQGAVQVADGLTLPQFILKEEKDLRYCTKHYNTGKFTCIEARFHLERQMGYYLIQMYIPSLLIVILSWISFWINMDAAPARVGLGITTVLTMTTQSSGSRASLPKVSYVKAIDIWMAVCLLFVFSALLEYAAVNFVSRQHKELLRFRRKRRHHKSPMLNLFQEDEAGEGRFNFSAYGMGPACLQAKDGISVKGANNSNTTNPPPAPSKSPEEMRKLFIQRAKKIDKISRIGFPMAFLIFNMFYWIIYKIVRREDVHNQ

[10] = target: T1, Neuronal acetylcholine receptor subunit alpha-7; assay: Antagonist activity at human alpha-7 nAChR in tsA201 cells coexpressed with Ric3 by FMP assay; format: functional, cell-based

T1 sequence (P36544 whole entry): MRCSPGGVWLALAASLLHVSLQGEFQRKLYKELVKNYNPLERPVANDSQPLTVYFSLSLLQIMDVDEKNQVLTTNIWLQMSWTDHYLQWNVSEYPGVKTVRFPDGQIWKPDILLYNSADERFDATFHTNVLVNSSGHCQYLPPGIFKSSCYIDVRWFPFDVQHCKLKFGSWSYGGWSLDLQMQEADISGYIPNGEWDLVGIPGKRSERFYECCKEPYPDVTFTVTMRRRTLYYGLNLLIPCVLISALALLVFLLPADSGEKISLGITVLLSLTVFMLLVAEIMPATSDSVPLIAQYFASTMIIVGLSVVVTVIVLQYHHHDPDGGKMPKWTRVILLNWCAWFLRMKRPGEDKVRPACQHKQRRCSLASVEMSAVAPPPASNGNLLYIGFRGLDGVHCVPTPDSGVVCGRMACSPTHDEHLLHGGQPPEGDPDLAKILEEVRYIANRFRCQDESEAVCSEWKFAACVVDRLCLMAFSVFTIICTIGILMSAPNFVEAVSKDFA

Compound	Ki ([1]; read-out: Ki) [µM]	Ki ([1]; read-out: pKi (converted)) [µM]	IC50 ([2]; read-out: IC50) [µM]	pKi [3]	Ki [3] [µM]	IC50 (cells; read-out: IC50) [µM]	IC50 (cells; read-out: pIC50 (converted)) [µM]	Ki [4] [µM]	pKi [4]	IC50 [5] [µM]	Ki ([6]; read-out: Ki) [µM]	Ki ([6]; read-out: pKi (converted)) [µM]	Ki [7] [µM]	Ki [8] [µM]	pKi [8]	IC50 [9] [µM]	pIC50 [9]	IC50 ([10]; read-out: IC50) [µM]	IC50 ([10]; read-out: pIC50 (converted)) [µM]	pKi [7]	other results
C=CC[N+]12CC[C@@H]3[C@@H]4[C@@H]5[C@@H](OCC=C(C1)[C@@H]5C[C@@H]32)N1c2ccccc2[C@@]23CC[N+]5(CC=C)CC6=CCO[C@H]([C@@H]([C@H]12)[C@H]6C[C@@H]35)N4c1ccccc1.[Br-].[Br-] (some centres undefined)	0.066	0.0631	100	< 4	> 100	> 100	> 100	> 100	< 4	100	0.03	0.0316	100	> 100	< 4	> 100	< 4	0.28	0.282		
C=CC[N+]12CC[C@@]34c5ccccc5N5/C=C6/[C@H]7C[C@H]8[C@@]9(CC[N@@+]8(CC=C)C/C7=C/CO)c7ccccc7N(/C=C(/[C@@H](C[C@@H]31)/C(=C\CO)C2)[C@H]54)[C@@H]69 (some centres undefined)	2.1	2	18	< 4	> 100	> 100	> 100	3.2		> 100	1.1	1	> 100	> 100	< 4	> 100	< 4	4.1	4.07	< 4	IC50 ([2]; read-out: pIC50 (converted)): 15.8 µM; pIC50 [5]: < 4
C=CC[N+]12CC[C@@H]3[C@@H]4[C@@H]5[C@@H](OCC=C(C1)[C@@H]5C[C@@H]32)N1c2ccccc2[C@@]23CCN5CC6=CCO[C@H]([C@@H]([C@H]12)[C@H]6C[C@H]53)N4c1ccccc1.[Br-] (some centres undefined)	0.071		30	< 4	> 100	> 100	> 100	> 100	< 4	30	0.055	0.0501	19	> 100	< 4	> 100	< 4	0.34	0.339		
Brc1ccc(C[N+]23CC[C@@H]4[C@@H]5[C@@H]6[C@@H](OCC=C(C2)[C@@H]6C[C@@H]43)N2c3ccccc3[C@@]34CC[N+]6(Cc7ccc(Br)cc7)CC7=CCO[C@H]([C@@H]([C@H]23)[C@H]7C[C@@H]46)N5c2ccccc2)cc1.[Br-].[Br-] (some centres undefined)	0.26	0.251	> 100	< 4	> 100	> 100	> 100	> 100	< 4	30	0.64	0.631	5.7	> 100	< 4	> 100	< 4	10	10.5		pIC50 [2]: < 4
C/C=C/C[N+]12CC[C@@H]3[C@@H]4[C@@H]5[C@@H](OCC=C(C1)[C@@H]5C[C@@H]32)N1c2ccccc2[C@@]23CC[N+]5(C/C=C/C)CC6=CCO[C@H]([C@@H]([C@H]12)[C@H]6C[C@@H]35)N4c1ccccc1.[Br-].[Br-] (some centres undefined)	0.23	0.251	100	< 4	> 100	> 100	> 100	100		100	0.1		15	> 100	< 4	> 100	< 4	1.1	1.15		pKi ([6]; tsa201): 7
CC(=O)OCC[N+]12CC[C@@H]3[C@@H]4[C@@H]5[C@@H](OCC=C(C1)[C@@H]5C[C@@H]32)N1c2ccccc2[C@@]23CC[N+]5(CCOC(C)=O)CC6=CCO[C@H]([C@@H]([C@H]12)[C@H]6C[C@@H]35)N4c1ccccc1.[Br-].[Br-] (some centres undefined)	0.28	0.251	> 100	< 4	> 100	> 100	> 100	> 100	< 4	> 100	0.31	0.316	> 100	> 100	< 4	> 100	< 4	1.6	1.62	< 4	pIC50 [2]: < 4; pIC50 [5]: < 4
C[N+](C)(Cc1ccc([N+](=O)[O-])cc1)Cc1c2n(c3ccccc13)Cc1c(C[N+](C)(C)Cc3ccc([N+](=O)[O-])cc3)c3ccccc3n1C2.[Br-].[Br-]	2.1	2	> 100	< 4	> 100	> 100	> 100	> 100	< 4	30	3.9	3.98	> 100	> 100	< 4	> 100	< 4	30	100	< 4	pIC50 [2]: < 4
